Like-named read-outs stand apart in the source and are kept apart here.
Tests used:
ICM-forming enzyme [1] = assay: Effects of metal ions on the enzyme activity; assay type: biochemical, Bacillus circulans AM7
ICM-forming enzyme [2] = assay: Action on various saccharides (substrate specificity, TLC); assay type: biochemical, Bacillus circulans AM7; set-up: key: −: Not changed; +: Spot of substrate is slightly decreased and the formation of ICM are detected; ++: Spot of substrate is markedly decreased and the formation of ICM are detected; +++: Spot of substrate is virtually disappeared and the formation of ICM are detected; details: substrate 2% (w/v), one unit/g-substrate enzyme, 40° C., pH 6.0, 24 hours
Experimental: Substrate specificity of ICM-forming enzyme was investigated using various saccharides as substrates. Substrate solutions were prepared by dissolving maltose, maltotriose, maltotetraose, maltopentaose, maltohexaose, maltoheptaose, neotrehalose, trehalose, kojibiose, nigerose, isomaltose, isomaltotriose, panose, isopanose, maltitol, maltotriitol, α-, β-, or γ-cyclodextrin, amylose, soluble starch, glycogen, pullulan or dextran in water. Each substrate solution was admixed with acetate buffer (pH 6.0) and CaCl2 to give final concentrations of 20 mM and 1 mM, respectively. […] Substrate concentration was set to 2% (w/v) and followed by the enzyme reaction at 40° C. and pH 6.0 for 24 hours. To examine the saccharides in each mixture before and after the reaction, saccharides were separated by silica gel thin-layer chromatography (hereinafter, simply abbreviated as “TLC”) using “KIESELGEL 60”, a TLC aluminum plate (10×20 cm) and a solvent (n-butanol/pyridine/water, volume ratio of 6:4:1) and two-times ascending method. The separated saccharides on the plate were detected by visualizing the spots with sulfate-methanol method. By the above TLC analyses, the enzymatic action and the degree of the reaction of ICM-forming enzyme on each substrate were confirmed.

[3] = Reducing power by the Somogyi-Nelson method; assay type: physicochemical
Excerpt: It was concluded that Saccharides I and II were substantially non-reducing saccharides.

[4] = Optimum temperature and pH for the enzyme reaction; assay type: biochemical, Bacillus circulans AM7; details: for Optimum pH: 30° C. for 30 min; for Optimum temperature: pH 6.0 for 30 min
Experimental: The enzyme activity of ICM-forming enzyme of the present invention can be assayed as follows: A substrate solution is prepared by dissolving amylose in 50 mM acetate buffer (pH 6.0) containing 1 mM CaCl2 to give a concentration of 1.25% (w/v). 0.2 ml of an enzyme solution is added to 0.8 ml of the substrate solution, and the mixture solution is incubated at 30° C. for 30 mm. After stopping the reaction by heating at about 100° C. for 10 min, the reaction mixture is admixed with 4,000 units/g-solid of α-glucosidase and 250 units/g-solid of glucoamylase to hydrolyze the remaining soluble starch and concomitant oligosaccharides, and followed by the enzyme treatment at 50° C. for one hour. The amount of ICG5 contained in the treated mixture is determined by HPLC described later in Experiment 1. One unit activity of ICM-forming enzyme is defined as the amount of enzyme which forms one μmole of ICG5 per minute under the above conditions.
The results are in FIG. 9 (Optimum temperature) and FIG. 10 (Optimum pH), respectively.

[5] = enzyme purified from Bacillus circulans AM7
[6] = recombinant enzyme from transformant ETAM1

Molecule | Action (ICM-forming enzyme [2]) | Relative activity (ICM-forming enzyme [1]; 1 mM metal salt, None = 100) [%] | further results
[Cl-].[Cl-].[Co+2] [CoCl2] |  |  | Relative activity (ICM-forming enzyme [1]): 100%
OC[C@@H](O)[C@@H](O[C@H]1O[C@H](CO)[C@@H](O)[C@H](O)[C@H]1O)[C@H](O)[C@@H](O)CO [Maltitol, maltitol] | − |  | 
[Cl][Pb][Cl] [PbCl2] |  | 130 | 
OC[C@H]1O[C@H](O[C@H]2C(O)O[C@H](CO)[C@@H](O)[C@@H]2O)[C@H](O)[C@@H](O)[C@@H]1O (stereo partly drawn) [Kojibiose, kojibiose] | − |  | 
pullulan | − |  | 
amylose | +++ |  | 
[Cl][Al]([Cl])[Cl] [AlCl3] |  | 106 | 
[Cl-].[Cl-].[Mg+2] [MgCl2] |  | 110 | 
[Cl][Hg][Cl] [HgCl2] |  | 55 | Inhibition of ICM-forming enzyme activity (ICM-forming enzyme [1]; 1 mM metal salt): 45%
[Cl][Mn][Cl] [MnCl2] |  | 108 | 
OC[C@H]1O[C@H](O[C@H]2O[C@H](CO)[C@@H](O)[C@H](O)[C@H]2O)[C@H](O)[C@@H](O)[C@@H]1O [Trehalose, trehalose] | − |  | 
soluble starch | ++ |  | 
maltoheptaose | +++ |  | 
glycogen | + |  | 
[Ba+2].[Cl-].[Cl-] [BaCl2] |  | 99 | 
OC[C@H]1O[C@H](OC[C@H]2OC(O)[C@H](O)[C@@H](O)[C@@H]2O)[C@H](O)[C@@H](O)[C@@H]1O (stereo partly drawn) [Isomaltose, isomaltose] | − |  | 
OC[C@H]1O[C@@H](O[C@H]2O[C@H](CO)[C@@H](O)[C@H](O)[C@H]2O)[C@H](O)[C@@H](O)[C@@H]1O [Neotrehalose, neotrehalose] | − |  | 
maltopentaose | +++ |  | 
O=C(O)CN(CCN(CC(=O)O)CC(=O)O)CC(=O)O [EDTA] |  | 86 | Inhibition of ICM-forming enzyme activity (ICM-forming enzyme [1]; 1 mM metal salt): inhibited slightly

Molecule | Action (ICM-forming enzyme [2]) | Relative activity (ICM-forming enzyme [1]; 1 mM metal salt, None = 100) [%] | further results
[Cl][Ni][Cl] [NiCl2] |  | 105 | 
dextran | − |  | 
OC[C@H]1O[C@H](O[C@H]2[C@H](O)[C@@H](O)[C@@H](OC[C@H]3OC(O)[C@H](O)[C@@H](O)[C@@H]3O)O[C@@H]2CO)[C@H](O)[C@@H](O)[C@@H]1O (stereo partly drawn) [Isopanose, isopanose] | − |  | 
maltohexaose | +++ |  | 
OC[C@H]1O[C@H](O[C@H]2[C@H](O)[C@@H](O)C(O)O[C@@H]2CO)[C@H](O)[C@@H](O)[C@@H]1O (mixture of isomers) [Maltose, maltose] | − |  | 
OC[C@H]1O[C@H](O[C@H]2[C@H](O)[C@@H](CO)OC(O)[C@@H]2O)[C@H](O)[C@@H](O)[C@@H]1O (stereo partly drawn) [Nigerose, nigerose] | − |  | 
[Cl][Cu][Cl] [CuCl2] |  | 79 | Inhibition of ICM-forming enzyme activity (ICM-forming enzyme [1]; 1 mM metal salt): about 20%
OC[C@@H](O)[C@@H](O[C@H]1O[C@H](CO)[C@@H](O[C@H]2O[C@H](CO)[C@@H](O)[C@H](O)[C@H]2O)[C@H](O)[C@H]1O)[C@H](O)[C@@H](O)CO [Maltotriitol, maltotriitol] | − |  | 
[Cl-].[Cl-].[Sr+2] [SrCl2] |  | 100 | 
[Cl][Fe]([Cl])[Cl] [FeCl3] |  | 82 | Inhibition of ICM-forming enzyme activity (ICM-forming enzyme [1]; 1 mM metal salt): about 20%
OC[C@H]1O[C@H](OC[C@H]2O[C@H](O[C@H]3[C@H](O)[C@@H](O)C(O)O[C@@H]3CO)[C@H](O)[C@@H](O)[C@@H]2O)[C@H](O)[C@@H](O)[C@@H]1O (stereo partly drawn) [Panose, panose] | − |  | 
OC[C@H]1O[C@H](OC[C@H]2O[C@H](OC[C@H]3OC(O)[C@H](O)[C@@H](O)[C@@H]3O)[C@H](O)[C@@H](O)[C@@H]2O)[C@H](O)[C@@H](O)[C@@H]1O (stereo partly drawn) [Isomaltotriose, isomaltotriose] | − |  | 
[Cl][Fe][Cl] [FeCl2] |  | 94 | 
maltotriose | + |  | 
OCC1OC2OC3C(CO)OC(OC4C(CO)OC(OC5C(CO)OC(OC6C(CO)OC(OCC7OC(OC1C(O)C2O)C(O)C(O)C7O)C(O)C6O)C(O)C5O)C(O)C4O)C(O)C3O [ICG6, cyclo{→6)-α-D-glucopyranosyl-(1→4)-α-D-glucopyranosyl-(1→4)-α-D-glucopyranosyl-(1→4)-α-D-glucopyranosyl-(1→4)-α-D-glucopyranosyl-(1→4)-α-D-glucopyranosyl-(1→}] |  |  | Reducing power [3]: less than the measurable limit
[Ca+2].[Cl-].[Cl-] [CaCl2] |  | 105 | 
OC[C@H]1O[C@H](O[C@H]2[C@H](O)[C@@H](O)[C@@H](O[C@H]3[C@H](O)[C@@H](O)[C@@H](O[C@H]4[C@H](O)[C@@H](O)C(O)O[C@@H]4CO)O[C@@H]3CO)O[C@@H]2CO)[C@H](O)[C@@H](O)[C@@H]1O (stereo partly drawn) [Maltotetraose, maltotetraose] | ++ |  | 
[Cl-].[Cl-].[Zn+2] [ZnCl2] |  | 113 | 
ICM-forming enzyme: enzyme from Bacillus circulans AM7 (FERM BP-10111) forming ICM from α-1,4 glucans; amino acid sequence SEQ ID NO:2 (protein, Bacillus circulans) ASIGTVTENDTIYQIMVDRFNDGDSSNNATGAAIRYGENSEEDFRYMKGGDWQGVIDKLPYIHNMGYTAIWISPVAEPQMTNRENNGTGKNTAYHGYNVKDPNKANPYFGTKEKLKELVDSAHALGIKVIIDVVPNHIGDYMLGTQAFYDIPSLQPAAPFNNPAWYHHNGDINWSLADGRYDQWAQDYLENHDLGGLDDIDFDVPAAKQAIFSSIKGWFDYTGADGARVDAAKLMKPTDIGELQNLLGVNTFGENFDGNAEFVSRWVGTNKEWGMLDFPLFFSVLNSFAYGQSFDANIKGTLAQDSYYGGNANHMVTFIDNHDRNRFLTEAGGSVEKLQNALSFIFTVRGTPVVFQGTEQNKGNGNGQIMTGGIADTWNRWSMVKRDANGNVLENYFNENASTFKHVAKLNEIRKNNPALRTGTQREMWSAQNLYAFSRRIDTGTNVGQEVISAFSNASGGSQTVTLPLRAESTLTAGTVLVNQLNPSDTVTVQAGGVTGKQITVTLGANSAKIYAKTQPVTDTQAPSVPGNVTATVQNASSALVSWSASTDNVGVTGYEIYRNGVKIGTSATTSFTDNGLVGSTNYSYTVKAYDAAMNLSAFSAAALIVTPAGNSVTIYYKQGYTNPYIHYRPVGGTWTTSPGVAIPAAEVAGYNKITINIGAATQLEACFNNGSGIWDSNGGSNYLFGTGTWTYTPTGNIQAGGPVTPTASPTATPTVAPTATPTVTPTPTPTATPTVAPTATPTVAPTATPVPTATPAGNTATIYYKNTAFSNSYIHYKLDGATTWTTSPGVPMQASTFSGYKSITIPLGTATGLTAAFNNGSGTWDSNGGNNYHFGTGSSSLVGGSLTTGEPQADSVTFRVSVPGSTPANAPVYLTGSFNSWNAADTAYLLTRGSDGVYSVTLNLPAGTAVTYKLTRGSWATVETTSSGADITNRTLTPAGGAQTVTISVQRWKDQ |  |  | Optimum pH [4, 5]: 4.5 to 8.0; Optimum temperature [4, 5]: 50 to 55 °C; Optimum pH [4, 6]: 4.5 to 8.0; Optimum temperature [4, 6]: 50 to 55 °C

From patent publication US8633005B2, “Isocyclomaltooligosaccharide(s), isocyclomaltooligosaccharide-forming enzyme, their preparation and uses” (Hayashibara Co., Ltd., priority 2004, dated 2014)
